pEC50: −log10 of the molar value.
Key:
Raw264.7 cells = test: KARS1-induced trans-migration assay; assay type: cell-based, mouse; details: for inhibition at 1 µM: 1 µM compound, read-out: KARS1-induced Raw264.7 cell migration (% inhibition, 1uM)
Protocol: C0001 inhibits the binding of KARS1 and 67LR, thereby blocking the migration of monocytes/macrophages and suppressing inflammation. Accordingly, a trans-migration assay using mouse macrophages (Raw264.7) was conducted to preliminarily screen drugs that inhibit the migration of monocytes/macrophages.
Based on this, when KARS1 protein was directly treated externally instead of LN, the trans-migration of Raw264.7 was induced, and the cell migration inhibitory effect of the KARS1 inhibitor C0001 was confirmed. It was verified that C0001, which specifically binds to KARS1, can inhibit cell migration by binding to extracellular KARS1, in addition to the mechanism of inhibiting cell membrane migration of KARS1 induced by laminin and its binding to 67LR, thereby enabling this analysis to be used as a direct method for evaluating in vitro activity against KARS1.
Next, preliminary candidate substances with high inhibitory activity at 1 µM were treated at concentrations of 0.1~4 µM for analysis.

Raw 264.7 cells = test: LN (Laminin 421)-induced immune cell migration, Transwell; assay type: cell-based; details: Mus musculus, RAW264.7; 3 µM compound, LN (Laminin 421 1 µg/ml), 24 hours, % inhibition compared to control group; read-out: Migration inhibitor % (3uM)
Protocol: Cell migration was assessed based on the method described in the prior literature (Park, S. G. et al. Human lysyl-tRNA synthetase is secreted to trigger proinflammatory response. Proceedings of the National Academy of Sciences, 2005, 102.18: 6356-6361.). The specific experimental method is as follows. A Transwell (Corning#3421-5µm pore) was coated with gelatin (0.5mg/ml), and then Raw 264.7 cells (1 x 10^5 cells/well) were seeded in the upper chamber. Serum-free medium (Serum Free DMEM, 500 µl) containing LN (Laminin 421 1 µg/ml) was added to the lower chamber. Each compound was treated at a concentration of 3µM in the upper chamber. After 24 hours, the cells were fixed with 70% methanol for 30 minutes and stained with 50% hematoxylin for 30 minutes. Non-migrating cells on the upper side of the membrane were removed with a cotton swab, and the membrane was mounted on a slide. Migrating cells on the lower side of the membrane were observed under a high-power microscope, and the number of cells was measured from the obtained images and expressed as the inhibition rate (% inhibition) compared to the control group.

KARS1 and 37LR = target: T1, KARS1 and 37LR (Homo sapiens, UniProt Q15046); test: Cell-free ELISA of KARS1 and 37LR (laminin receptor) binding; details: 10 µM compound, 1 hour, plate coated with KARS1 (1-207aa), LRF
T1 construct: KARS1 (1-207aa)
T1 sequence (Q15046 1-207): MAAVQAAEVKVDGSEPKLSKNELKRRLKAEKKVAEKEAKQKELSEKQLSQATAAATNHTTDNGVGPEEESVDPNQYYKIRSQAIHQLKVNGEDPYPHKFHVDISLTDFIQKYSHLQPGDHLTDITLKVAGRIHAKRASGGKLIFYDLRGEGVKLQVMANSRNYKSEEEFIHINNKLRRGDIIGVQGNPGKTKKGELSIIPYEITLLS
Protocol: Next, based on the mechanism of action, a cell-free ELISA analysis was conducted to select compounds with high inhibitory activity on the binding of KARS1 and LR (laminin receptor).

inhibition at 10 µM (KARS1 and 37LR) | pEC50 (Raw264.7 cells; Mus musculus, RAW264.7, KARS1-induced cell migration, 0.1~4 µM) | SMILES | inhibition at 1 µM (Raw264.7 cells; Mus musculus, RAW264.7) | inhibition at 3 µM (Raw 264.7 cells) | times higher activity compared to C0001 (Raw264.7 cells; EC50, KARS1-induced cell migration)
-6% | – | COc1ccc(CCN(Cc2ccc(-c3ccccc3)cc2)c2nc3cccnc3s2)cc1 [Compound 1, N-([1,1'-biphenyl]-4-ylmethyl)-N-(4-methoxyphenethyl)thiazolo[5,4-b]pyridin-2-amine] | 19.8% | 8.8% | –
79.4% | – | COc1ccc(CCN(Cc2ccc(CCC(=O)O)cc2)c2nc3cccc(F)c3s2)cc1 [Compound 2, 3-(4-(((7-fluorobenzo[d]thiazol-2-yl)(4-methoxyphenethyl)amino)-methyl)phenyl)propanoic acid] | 98.1% | 15.7% | –
4.7% | – | CCN(CC)C(=O)C#Cc1ccc(CN(CCc2ccc(OC)cc2)c2nc3cccc(F)c3s2)cc1 [Compound 3, N,N-diethyl-3-(4-(((7-fluorobenzo[d]thiazol-2-yl)(4-methoxyphenethyl)amino)methyl)phenyl)propiolamide] | 22.6% | 0% | –
13.8% | – | CNC(=O)C#Cc1ccc(CN(CCc2ccc(OC)cc2)c2nc3cccc(F)c3s2)cc1 [Compound 4, 3-(4-(((7-fluorobenzo[d]thiazol-2-yl)(4-methoxyphenethyl)amino)-methyl)phenyl)-N-methylpropiolamide] | 9.8% | 88% | –
0.8% | – | COc1ccc(CCN(Cc2ccc(C#CC(N)=O)cc2)c2nc3cccc(F)c3s2)cc1 [Compound 5, 3-(4-(((7-fluorobenzo[d]thiazol-2-yl)(4-methoxyphenethyl)amino)-methyl)phenyl)propiolamide] | 95.6% | 77.7% | –
14.8% | – | COc1ccc(CCNc2ncc3ccn(C)c3n2)cc1 [Compound 6, N-(4-methoxyphenethyl)-7-methyl-7H-pyrrolo[2,3-d]pyrimidin-2-amine] | 23.5% | 5.1% | –
9.5% | – | COc1ccc(CCN(Cc2ccc(Br)cc2)c2ncc3ccn(C)c3n2)cc1 [Compound 7, N-(4-bromobenzyl)-N-(4-methoxyphenethyl)-7-methyl-7H-pyrrolo[2,3-d]pyrimidin-2-amine] | 39.1% | 10.9% | –
8.5% | – | C#Cc1cccc(CN(CCc2ccc(OC)cc2)c2nc3cccc(F)c3s2)c1 [Compound 9, N-(3-ethynylbenzyl)-7-fluoro-N-(4-methoxyphenethyl)benzo[d]thiazol-2-amine] | – | 0% | –
3% | – | C#Cc1ccc(CN(CCc2ccc(OC)cc2)c2ncc3ccn(C)c3n2)cc1 [Compound 11, N-(4-ethynylbenzyl)-N-(4-methoxyphenethyl)-7-methyl-7H-pyrrolo[2,3-d]pyrimidin-2-amine] | 37.8% | 12% | –
57.9% | – | COc1ccc(CCN(Cc2ccc(C#CC(=O)O)cc2)c2ncc3ccn(C)c3n2)cc1 [Compound 12, 3-(4-(((4-methoxyphenethyl)(7-methyl-7H-pyrrolo[2,3-d]pyrimidin-2-yl)amino)methyl)phenyl)propiolic acid] | 55.1% | 43% | –
– | – | COc1ccc(CCN(Cc2nc3cc(C(=O)O)ccc3o2)c2nc3cccc(F)c3s2)cc1 [Compound 28, 2-(((7-fluorobenzo[d]thiazol-2-yl)(4-methoxyphenethyl)amino)-methyl)benzo[d]oxazole-5-carboxylic acid] | 43.2% | 16.4% | –
– | – | COc1ccc(CCN(Cc2ccc3c(c2)CNC3)c2nc3cccc(F)c3s2)cc1 [Compound 29, 7-fluoro-N-(isoindolin-5-ylmethyl)-N-(4-methoxyphenethyl)benzo-[d]thiazol-2-amine] | 4.1% | 33% | –
– | – | COc1ccc(CCN(Cc2ccc3c(c2)CN(S(N)(=O)=O)C3)c2nc3cccc(F)c3s2)cc1 [Compound 31, 5-(((7-fluorobenzo[d]thiazol-2-yl)(4-methoxyphenethyl)amino)-methyl)isoindoline-2-sulfonamide] | 28.3% | 72.8% | –
– | – | COc1ccc(CCN(Cc2ccc(-n3ccc(C(=O)O)c3)cc2)c2nc3cccc(F)c3s2)cc1 [Compound 34, 1-(4-(((7-fluorobenzo[d]thiazol-2-yl)(4-methoxyphenethyl)amino)-methyl)phenyl)-1H-pyrrole-3-carboxylic acid] | 99.4% | 13% | –
– | – | COc1ccc(CCN(Cc2ccc(C3(C(=O)O)CCC3)cc2)c2nc3cccc(F)c3s2)cc1 [Compound 36, 1-(4-(((7-fluorobenzo[d]thiazol-2-yl)(4-methoxyphenethyl)amino)-methyl)phenyl)cyclobutane-1-carboxylic acid] | 96.8% | 21.8% | –
– | – | COc1ccc(CCN(Cc2ccc(N3CC[C@@H](C(=O)O)C3)cc2)c2nc3ccccc3o2)cc1 [Compound 37, (R)-1-(4-((benzo[d]oxazol-2-yl(4-methoxyphenethyl)amino)methyl)-phenyl)pyrrolidine-3-carboxylic acid] | 50.6% | 19.3% | –
– | – | COc1ccc(CCN(Cc2ccc(N3CC[C@H](C(=O)O)C3)cc2)c2nc3ccccc3o2)cc1 [Compound 38, (S)-1-(4-((benzo[d]oxazol-2-yl(4-methoxyphenethyl)amino)methyl)-phenyl)pyrrolidine-3-carboxylic acid] | 40.4% | 15.3% | –
– | – | COc1ccc(CCN(Cc2ccc(C#CC(=O)O)cc2)c2nc3cccnc3o2)cc1 [Compound 44, 3-(4-(((4-methoxyphenethyl)(oxazolo[5,4-b]pyridin-2-yl)amino)-methyl)phenyl)propiolic acid] | – | 1.1% | –
– | – | COc1ccc(CCN(Cc2ccc(C#CC(=O)O)cc2)c2nc3ccc(=O)[nH]c3s2)cc1 [Compound 45, 3-(4-(((4-methoxyphenethyl)(5-oxo-4,5-dihydrothiazolo[5,4-b]pyridin-2-yl)amino)methyl)phenyl)propiolic acid] | 39.8% | 7.8% | –
– | – | COc1ccc(CCN(Cc2ccc(N3CCC(C(=O)O)CC3)cc2)c2nc3cccc(F)c3s2)cc1 [Compound 46, 1-(4-(((7-fluorobenzo[d]thiazol-2-yl)(4-methoxyphenethyl)amino)-methyl)phenyl)piperidine-4-carboxylic acid] | 90.9% | – | –
– | 7.10 | COc1ccc(CCN(Cc2ccc(-n3cc(C(=O)O)cn3)cc2)c2nc3cccc(F)c3s2)cc1 [Compound 47, 1-(4-(((7-fluorobenzo[d]thiazol-2-yl)(4-methoxyphenethyl)amino)-methyl)phenyl)-1H-pyrazole-4-carboxylic acid] | 99.7% | – | approximately 10 times
– | – | NC(=O)c1ccc(CCN(Cc2ccc(N3CC[C@H](C(=O)O)C3)cc2)c2nc3cccc(F)c3s2)cc1 [Compound 48, (S)-1-(4-(((4-carbamoylphenethyl)(7-fluorobenzo[d]thiazol-2-yl)amino)methyl)phenyl)pyrrolidine-3-carboxylic acid] | 36.6% | – | –
– | – | O=C(O)[C@H]1CCN(c2ccc(CN(CCn3ccccc3=O)c3nc4cccc(F)c4s3)cc2)C1 [Compound 49, (S)-1-(4-(((7-fluorobenzo[d]thiazol-2-yl)(2-(2-oxopyridin-1(2H)-yl)ethyl)amino)methyl)phenyl)pyrrolidine-3-carboxylic acid] | 34.8% | – | –

SMILES | inhibition at 10 µM (KARS1 and 37LR) | pEC50 (Raw264.7 cells; Mus musculus, RAW264.7, KARS1-induced cell migration, 0.1~4 µM) | inhibition at 1 µM (Raw264.7 cells; Mus musculus, RAW264.7) | inhibition at 3 µM (Raw 264.7 cells) | times higher activity compared to C0001 (Raw264.7 cells; EC50, KARS1-induced cell migration)
COc1ccc(CCN(Cc2cccc(C#C[Si](C)(C)C)c2)c2nc3cccc(F)c3s2)cc1 [Compound 8, 7-fluoro-N-(4-methoxyphenethyl)-N-(3-((trimethylsilyl)ethynyl)-benzyl)benzo[d]thiazol-2-amine] | 13.4% | – | – | 27% | –
COc1ccc(CCN(Cc2ccc(C#C[Si](C)(C)C)cc2)c2ncc3ccn(C)c3n2)cc1 [Compound 10, N-(4-methoxyphenethyl)-7-methyl-N-(4-((trimethylsilyl)ethynyl)-benzyl)-7H-pyrrolo[2,3-d]pyrimidin-2-amine] | 9.8% | – | 11.7% | 0% | –

From patent publication EP4656630A1, “NOVEL COMPOUND AS LYSYL-TRNA SYNTHETASE 1 INHIBITOR, AND USE THEREOF” (Zymedi Co., Ltd., priority 2023, dated 2024)
